For data set [1] the following is noted: cited from earlier work.
Data set [2] is classed as physicochemical. The protocol:
Under ambient conditions the monohydrate of the meloxicam-meglumin salt is the stable modification, but at a relative humidity of over 75% a dihydrate is formed. The enclosed water can only be eliminated from the dihydrate under conditions of very great dryness. […] By intensive drying over a fairly long period the anhydrous form changes more and more into an amorphous form and after 24 h at 100° C. the material is totally amorphous.
The relevant parameters of the dehydration process are the temperature and duration of dehydration, the influence of which were observed by X-ray powder diffraction. The longer the dehydration process lasts, the less crystalline is the resulting material. […] The X-ray powder diffraction diagrams obtained after 1 hour at 80° C., 15 hours at 70° C., 20 hours at 80° C. and 24 hours at 100° C. are shown in FIG. 7.

For data set [3] the following is noted: depending on the formulation; cited from earlier work.
The nature of data set [4]: Saturation solubility of meloxicam and its salts in various dissolving media. The settings on record: 0.1 N hydrochloric acid, pH 1, simulated gastric fluid, read-out: Solubility at ambient temperature. Format: physicochemical.

Read-outs that look alike come from different tables or passages of the source.

Consider ibuprofen-lysinate, for which the “time after administration to peak-plasma level” value in data set [1] (8 fasting test subjects, ibuprofen-lysinate 1000 mg film-coated tablet, ibuprofenic acid 600 mg sugar-coated tablet) was 0.55 h; in data set [1] (non-fasting test subjects), 1.18 h.
Turning to `CNC[C@H](O)[C@@H](O)[C@H](O)[C@H](O)CO.Cc1cnc(NC(=O)C2=C(O)c3ccccc3S(=O)(=O)N2C)s1.O` [Example 1, Meloxicam Meglumin Salt Monohydrate], in data set [2], the hygroscopic properties entry is given as “hygroscopic”. The “solid-state change on dehydration (X-ray powder diffraction)” value in data set [2] (24 hours at 100° C.) is “anhydrous and totally amorphous”; in data set [2] (one hour at 80° C.) it was “no change can be detected”.
Turning to `Cc1cnc(NC(=O)C2=C(O)c3ccccc3S(=O)(=O)N2C)s1` [Meloxicam, 4-hydroxy-2-methyl-N-(5-methyl-2-thiazolyl)-2H-1,2-benzothiazine-3-carboxamide-1,1-dioxide], the “time to maximum plasma levels” value in data set [3] is 2 to 8 h. Further, the solubility thermodynamic in data set [4] is 0.9 µg/mL.
For the compound `CNC[C@H](O)[C@@H](O)[C@H](O)[C@H](O)CO.Cc1cnc(NC(=O)C2=C(O)c3ccccc3S(=O)(=O)N2C)s1` [Example 3, Anhydrous Meloxicam Meglumin Salt], the “stability of the anhydrous form after dehydration” value in data set [2] is on record as “very rapidly absorbs water to form the monohydrate form”.

Values taken from patent US6869948B1 (Boehringer Ingelheim Pharma KG, priority 1998, dated 2005).
